These results are taken from ChEMBL document CHEMBL3045822, “Growth retarding activity of lichen substances against the polyphagous herbivorous insect Spodoptera littoralis” (1994).

The source made the active and inactive calls. The rule behind the calls is not given here. Where only a bound is given, the exact number is not on record here.

Test [1] relates to Spodoptera littoralis. Put plainly: Growth retarding activity against neonate larval stage of Spodoptera littoralis fed with diet containing compound assessed as larval weight at 41 umol/gm dry weight after 6 days by chronic feeding bioassay (reference value: 100%). Type of test: functional.
For test [2], the system named is Spodoptera littoralis. The test is described as follows: Induction of imago developmental aberrations with imperfect wings in Spodoptera littoralis fed with diet containing compound at 110 umol/gm dry weight treated for 6 days measured after transferring onto control diet by chronic feeding bioassay. Type of test: functional.
The test system of test [3] is Spodoptera littoralis. Put plainly: Change in pupal weight of Spodoptera littoralis fed with diet containing compound at 110 umol/gm dry weight treated for 6 days measured after transferring onto control diet by chronic feeding bioassay (reference value: 0.40 +/-0.05 gms). Type of test: functional.
Test [4] relates to Spodoptera littoralis. Put plainly: Toxicity against neonate larval stage of Spodoptera littoralis fed with diet containing compound assessed as reduction in larval survival at 15 to 110 umol/gm dry weight after 6 days by chronic feeding assay. Type of test: functional, organism-based.
Test [5] relates to Spodoptera littoralis. Put plainly: Prolongation of duration of larval period in Spodoptera littoralis fed with diet containing compound at 110 umol/gm dry weight treated for 6 days measured after transferring onto control diet by chronic feeding bioassay (reference value: 17 to 20 days). The test is classed as functional.
Test [6] concerns Spodoptera littoralis. Put plainly: Growth retarding activity against neonate larval stage of Spodoptera littoralis fed with diet containing compound measured per gm of dry weight after 6 days by chronic feeding bioassay. Type of test: functional. Conditions: 144 h, read-out: ED50.
Test [7] concerns Spodoptera littoralis. Put plainly: Toxicity against neonate larval stage of Spodoptera littoralis fed with diet containing compound assessed as reduction in larval survival measured per gm dry weight after 6 days by chronic feeding assay. Type of test: functional. To be noted: 144 h, read-out: ED50.
The subject of test [8] is Spodoptera littoralis. The test is described as follows: Growth retarding activity against neonate larval stage of Spodoptera littoralis fed with diet containing compound assessed as larval weight at 104 umol/gm dry weight after 6 days by chronic feeding bioassay (reference value: 100%). The test is classed as functional.
Test [9] relates to Spodoptera littoralis. Put plainly: Growth retarding activity against neonate larval stage of Spodoptera littoralis fed with diet containing compound assessed as larval weight at 94 umol/gm dry weight after 6 days by chronic feeding bioassay (reference value: 100%). Type of test: functional.
Test [10] deals with Spodoptera littoralis. Put plainly: Growth retarding activity against neonate larval stage of Spodoptera littoralis fed with diet containing compound assessed as larval weight after 6 days by chronic feeding bioassay (reference value: 100%). Type of test: functional.
Test [11] concerns Spodoptera littoralis. The test is described as follows: Growth retarding activity against neonate larval stage of Spodoptera littoralis fed with diet containing compound assessed as larval weight at 70 umol/gm dry weight after 6 days by chronic feeding bioassay (reference value: 100%). Type of test: functional.
Test [12] has as its system Spodoptera littoralis. Put plainly: Reduction in number of imagoes emerging from pupae in Spodoptera littoralis fed with diet containing compound at 110 umol/gm dry weight after 6 days by chronic feeding bioassay (reference value: 90%). Set-up: scale not given: the % may be the effect or the level left. The test is classed as functional.

With `CCCCCC(=O)Cc1cc(O)c(O)c2c1C(=O)Oc1cc(O)c(C(=O)O)c(CCCCC)c1O2` [OXYPHYSODIC ACID], the figures for the Activity with Spodoptera littoralis [1], with Spodoptera littoralis [2] and in the test with Spodoptera littoralis [3] were 15%, 50% and 0.33 g, respectively. The result in the test with Spodoptera littoralis [4] was inactive. In the test with Spodoptera littoralis [5], this compound yielded a Time of 19 days. Moreover, the EC50 with Spodoptera littoralis [6] was 11.2 µmol/g.

Consider `CC(=O)C1=C(O)C=C2Oc3c(C(C)=O)c(O)c(C)c(O)c3[C@@]2(C)C1=O` [(+)-USNIC ACID], for which the results for the EC50 with Spodoptera littoralis [6] and with Spodoptera littoralis [7] were 4.5 µmol/g and 90.8 µmol/g, respectively.

With `COc1cc(C)c2c(c1C=O)Oc1c(c(C)c(O)c3c1C(O)OC3=O)OC2=O` (stereo not drawn) [STICTIC ACID], the Activity in the test on Spodoptera littoralis [8] was 27%; with Spodoptera littoralis [3] it was 0.41 g. In addition, in the test on Spodoptera littoralis [4], the outcome was inactive. The compound also displayed a Time in the test with Spodoptera littoralis [5] of 20 days. Also, in the test on Spodoptera littoralis [6], the EC50 was found to be 57.5 µmol/g.

For `Cc1cc(O)c(C=O)c2c1C(=O)Oc1c(C)c(O)c3c(c1O2)C(O)OC3=O` (stereo not drawn) [NORSTICTIC ACID], the figures for the Activity in the test with Spodoptera littoralis [9], in the test with Spodoptera littoralis [10] and in the test with Spodoptera littoralis [3] were 18%, 18% and 0.33 g, respectively. Also, the outcome in the test on Spodoptera littoralis [4] was inactive. The Time with Spodoptera littoralis [5] was 17 days. The EC50 in the test with Spodoptera littoralis [6] was determined as 32 µmol/g.

Regarding `COC(=O)c1c(C)cc(OC(=O)c2c(C)cc(O)c(C=O)c2O)c(C)c1O` [ATRANORIN], the figures for the Activity with Spodoptera littoralis [11] and in the test with Spodoptera littoralis [10] were 52% and 51%, respectively. Besides, the result in the test on Spodoptera littoralis [4] was inactive. The EC50 with Spodoptera littoralis [6] is above 110 µmol/g.

Consider `O=C1O/C(=C2/C(=O)Oc3ccccc32)C(O)=C1c1ccccc1` [CALYCIN], for which the Activity in the test on Spodoptera littoralis [2] is 44%; in the test with Spodoptera littoralis [3], 0.33 g. Moreover, the result in the test on Spodoptera littoralis [4] was inactive. This compound also had a Time with Spodoptera littoralis [5] of 21 days. Moreover, the EC50 in the test on Spodoptera littoralis [6] amounted to 37.6 µmol/g.

In the case of `O=C1OC2=C(c3ccccc3)C(=O)OC2=C1c1ccccc1` [PULVINIC DILACTONE], the outcome with Spodoptera littoralis [4] was inactive. The EC50 in the test with Spodoptera littoralis [6] was above 110 µmol/g.

`COc1cc(C(=O)O)c2c(c1C)OC(=O)c1c(C)cc(O)c(C=O)c1O2` [PSOROMIC ACID] had an Activity in the test with Spodoptera littoralis [3] of 0.41 g. The result in the test on Spodoptera littoralis [4] was inactive. Moreover, in the test with Spodoptera littoralis [5], the Time was determined as 20 days. The EC50 in the test on Spodoptera littoralis [6] worked out at 46.2 µmol/g.

As to `COc1cc(C)c(C(=O)Oc2cc(C)c(C(=O)O)c(O)c2)c(O)c1` [EVERNIC ACID], the result in the test with Spodoptera littoralis [4] was inactive. The EC50 with Spodoptera littoralis [6] is above 110 µmol/g.

As for `COC(=O)/C(=C1/OC(=O)C(c2ccccc2)=C1O)c1ccccc1` [VULPINIC ACID], the results for the Activity with Spodoptera littoralis [2] and with Spodoptera littoralis [3] were 14% and 0.32 g, respectively. The outcome in the test on Spodoptera littoralis [4] was inactive. For the same compound, in the test on Spodoptera littoralis [5], the Time came out at 23 days. For the same compound, the EC50 in the test on Spodoptera littoralis [6] came out at 17.2 µmol/g.

As to `Cc1cc(O)c(C=O)c2c1C(=O)Oc1c(COC(=O)/C=C/C(=O)O)c(O)c(C(=O)O)c(C)c1O2` [FUMARPROTOCETRARIC ACID], in the test with Spodoptera littoralis [3], the Activity is reported as 0.45 g. Also, the outcome in the test with Spodoptera littoralis [4] was inactive. In addition, the Time in the test on Spodoptera littoralis [5] is 24 days. Also, the EC50 in the test on Spodoptera littoralis [6] was 30.5 µmol/g.

For the compound `CC(=O)C1=C(O)C=C2Oc3c(C(C)=O)c(O)c(C)c(O)c3[C@]2(C)C1=O` [(-)-USNIC ACID], the EC50 amounted to 1.2 µmol/g in the test with Spodoptera littoralis [6] and 8.6 µmol/g with Spodoptera littoralis [7].

For the compound `COC(=O)C(Cc1ccccc1)NC(=O)/C(=C1/OC(=O)C(c2ccccc2)=C1O)c1ccccc1` (stereo not drawn) [RHIZOCARPIC ACID], the Activity in the test on Spodoptera littoralis [12] is 25%; in the test on Spodoptera littoralis [3], 0.28 g. Besides, the outcome in the test on Spodoptera littoralis [4] was inactive. In the test with Spodoptera littoralis [5], this compound came in with a Time of 19 days. The EC50 in the test with Spodoptera littoralis [6] is 70.8 µmol/g.

With `CCCCCC(=O)Cc1cc(O)cc2c1C(=O)Oc1cc(O)c(C(=O)O)c(CCCCC)c1O2` [PHYSODIC ACID], in the test with Spodoptera littoralis [4], the result was inactive. The EC50 in the test on Spodoptera littoralis [6] was above 110 µmol/g.

As to `Cc1cc(O)c(C=O)c2c1C(=O)Oc1c(CO)c(O)c3c(c1O2)C(O)OC3=O` (stereo not drawn) [SLAZINIC ACID], the Activity in the test on Spodoptera littoralis [3] is reported as 0.4 g. Further, the result in the test with Spodoptera littoralis [4] was inactive. In the test on Spodoptera littoralis [5], the Time was determined as 24 days. In addition, the EC50 with Spodoptera littoralis [6] is 29.2 µmol/g.
